Measurements published in patent US6858714B2, “Cyclic GMP phosphodiesterase” (Incyte Corporation, priority 1997, dated 2005).

What was measured:
[1] = target: T1, PDE9A (Homo sapiens, UniProt O76083); test: Effect of known PDE inhibitors on PDE9A activity (hydrolysis of 3H-cGMP); type: biochemical; conditions: cGMP as substrate, FIG. 5; for inhibition of PDE9A activity: up to 100 μM of inhibitor
T1 construct: A 1.8 kb region of PDE9A encoding the full length protein (nucleotides 61-1842) was amplified and cloned; made in house; host or cells: Sf9 insect cells (baculovirus, pFASTBAC)
T1 sequence (O76083 whole entry): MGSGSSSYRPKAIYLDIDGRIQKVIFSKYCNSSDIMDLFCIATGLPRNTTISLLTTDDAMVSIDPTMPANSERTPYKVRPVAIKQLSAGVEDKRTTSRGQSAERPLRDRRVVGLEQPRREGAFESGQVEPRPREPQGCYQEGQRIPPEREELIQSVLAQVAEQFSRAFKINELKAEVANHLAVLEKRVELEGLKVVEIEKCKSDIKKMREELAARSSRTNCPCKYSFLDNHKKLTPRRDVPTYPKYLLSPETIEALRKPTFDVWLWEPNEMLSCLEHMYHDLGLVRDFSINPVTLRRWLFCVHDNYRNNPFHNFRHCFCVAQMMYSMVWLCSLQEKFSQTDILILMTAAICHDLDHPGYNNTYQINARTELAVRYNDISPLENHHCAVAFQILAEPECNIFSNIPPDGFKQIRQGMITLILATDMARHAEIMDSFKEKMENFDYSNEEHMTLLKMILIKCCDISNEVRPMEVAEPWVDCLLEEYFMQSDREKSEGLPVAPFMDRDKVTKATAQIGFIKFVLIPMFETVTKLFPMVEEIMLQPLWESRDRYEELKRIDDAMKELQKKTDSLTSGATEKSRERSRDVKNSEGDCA
Protocol: A 1.8 kb region of PDE9A encoding the full length of the protein was cloned into the baculovirus transfer vector pFASTBAC, expressed in sf9 cells, and a cell lysate prepared from these cells for enzyme assays. […] PDE9A was not inhibited by up to 100 μM of rolipram (inhibitor of PDE4), dipyridamole (inhibitor of PDE2, 4, 5, and 6), SKF94120 (inhibitor of PDE3), vinpocetine (inhibitor of PDE1), or IBMX (non-specific PDE inhibitor). […] Of particular note is the expression of PDE9A in Crohn's disease.
PDE9A to be used for assay was prepared from transfected Sf9 cells. Cells were harvested by centrifugation, resuspended in homogenization buffer (20 mM Tris-HCl, 2 mM benzamidine, 1 mM EDTA, 0.25 M sucrose, 100 uM PMSF, pH 7.5 ) at 1×10^7 cells/ml, and disrupted using a Branson sonicating probe (3×10 second pulses). Cellular debris was removed by centrifugation at 14,000×g for 10 minutes. The supernatant was stored at −70° C.
PDE activity was assayed by measuring the conversion of ^3H-cGMP to ^3H-guanosine in the presence of PDE9A and 5′ nucleotidase. A one-step assay was run using a 100 uL assay containing 50 mM Tris-HCl pH 7.5, 10 mM MgCl^2, 0.1 unit 5′ nucleotidase (from Crotalus atrox venom), and 0.0064-2.0 uM ^3H-cGMP. The reaction was started by the addition of 25 μl of diluted enzyme supernatant. Reactions were run directly in mini Poly-Q scintillation vials (Beckman Instruments Inc., Fullerton Calif.). Assays were incubated at 37° C. for a time period that would yield less than 15% cGMP hydrolysis in order to avoid non-linearity associated with product inhibition. The reaction was stopped by the addition of 1 ml of Dowex AG1x8 (Cl form) resin (1:3 slurry). Three ml of scintillation fluid were added, and the vials were mixed. The resin in the vials was allowed to settle for 1 hr before counting. Soluble radioactivity associated with ^3H-guanosine was quantitated using a Beta scintillation counter. The amount of radioactivity recovered is proportional to the activity of PDE9A in the reaction.

[2] = target: T1, PDE9A; test: Kinetics of enzyme activity of recombinant PDE9A (Lineweaver-Burke analysis); type: biochemical; conditions: FIG. 3, read-out: Km of PDE9A for cGMP as substrate

SMILES | inhibition of PDE9A activity [1] | also measured
OCCN(CCO)c1nc(N2CCCCC2)c2nc(N(CCO)CCO)nc(N3CCCCC3)c2n1 [dipyridamole] | not inhibited | 
Nc1nc2c(ncn2[C@@H]2O[C@@H]3COP(=O)(O)O[C@H]3[C@H]2O)c(=O)[nH]1 [cGMP] |  | Km [2]: 0.17 µM
CCOC(=O)C1=C[C@]2(CC)CCCN3CCc4c(n1c1ccccc41)[C@@H]32 [vinpocetine] | not inhibited | 
CCCOc1ccccc1-c1nc2nn[nH]c2c(=O)[nH]1 [zaprinast] |  | IC50 ([1]; recombinant PDE9A from Sf9 cell lysate, read-out: IC50 for inhibition of PDE9A): 35 µM
CC(=O)Nc1ccc(-c2c[nH]c(=O)cn2)cc1 [SKF94120] | not inhibited | 
COc1ccc(C2CNC(=O)C2)cc1OC1CCCC1 (stereo not shown) [rolipram] | not inhibited | 
CC(C)Cn1c(=O)n(C)c(=O)c2[nH]cnc21 [IBMX] | not inhibited | 
